Series [1] concerns A549-ACE2-TMPRSS2GFP cells. As to conditions: 20 hours post infection.
Series [2] is described as follows: Pharmacokinetics in plasma. It is filed as in vivo.
Series [3] is described as follows: Solubility of Apilimod and Nafamostat in different vehicles (visible precipitate). It is filed as physicochemical. As to conditions: for precipitate in solution: 1 mg/ml Apilimod di-mesylate, 2 mg/ml Nafamostat mesylate, 12 hours at room temperature, also seen after centrifugation; for solubility in deionized water: mixed and dissolved in deionized (MilliQ) water; for solubility in solutions containing salt: phosphate buffer saline (PBS) or DMEM cell culture medium, particularly when together. The text has this: FIGS. 1A-1B show the solubility of Apilimod and Nafamostat in different vehicles. […] Magnified images of the boxed areas are shown on the right panels.
This is the reason why our drug mixtures were made in deionized (MilliQ) water as stocks and for intranasal administration. While the mouse nose tolerates exposure to deionized (MilliQ) water, for humans it may be necessary to adjust the osmolarity of the solution, for example by adding sucrose.

In series [4] the test system is Vero-E6 cells. As to conditions: 20 hours post infection.

Counter-ions that a name gives are not always drawn. Like-named read-outs stand apart in the source and are kept apart here.

Consider `N=C(N)c1ccc2cc(OC(=O)c3ccc(N=C(N)N)cc3)ccc2c1` [Nafamostat mesylate], for which the “number of cells, normalized to vehicle-treated infected cells” value in series [1] (drug stock prepared in DMEM) and in series [1] (drug stock prepared in PBS) was “Significant loss of cells” in each case. Besides, in series [2], the half-life in plasma entry is given as “relatively short half-life times (minutes)”. The precipitate in solution entry in series [3] (in DMEM) and in series [3] (in PBS) was “a precipitate is observable” throughout. Besides, the “solubility in deionized water” value in series [3] was “substantially increased”. Also, the “solubility in solutions containing salt” value in series [3] was “relatively insoluble and precipitate”.
With “N-[(E)-(3-methylphenyl)methylidencamino]-6-morpholin-4-yl-2-(2-pyridin-2-ylethoxy)pyrimidin-4-amine [Apilimod dimesylate]”, in series [2], the half-life in plasma result is given as “relatively short half-life times (minutes)”. Moreover, the precipitate in solution result in series [3] (in DMEM) and in series [3] (in PBS) was “a precipitate is observable” in each case. Moreover, the “solubility in deionized water” value in series [3] was “substantially increased”. For the same compound, the “solubility in solutions containing salt” value in series [3] is “relatively insoluble and precipitate”. The “number of cells, normalized to vehicle-treated infected cells” value in series [4] (drug stock prepared in DMEM) and in series [4] (drug stock prepared in PBS) was “Significant loss of cells” in each case.

Source of the values: patent publication US20250249012A1, “COMPOSITIONS AND METHODS FOR TREATING AND/OR PREVENTING A VIRAL INFECTION” (priority 2022, published 2025).
